Data published in patent US10131639B2, “Formulations of 2-(tert-butylamino)-4-((1R,3R,4R)-3-hydroxy-4methylcyclohexylamino)-pyrimidine-5-carboxamide” (Signal Pharmaceuticals, LLC, priority 2014, dated 2018).
Like-named read-outs stand apart in the source and are kept apart here.

Tests used:
[1] = Phase 1 study Part 2: single-dose plasma pharmacokinetics, relative bioavailability (tablet vs AIC) and food effect in healthy subjects; assay type: in vivo, human; conditions: for AUC(0-t) / Tmax / AUC(0-inf) / Cmax / Vd/F / half-life: human, plasma; for Vd/F: read-out: Vz/F (apparent total volume of distribution)
Experimental: Part 2 was an open label, randomized, crossover study with three periods. The study consisted of a screening phase (Days −21 to −2), baseline (Day −1), three treatment/assessment periods, and a follow up phone call.
Twelve eligible subjects reported to the study center on Day −1 of Period 1 for confinement and baseline assessments.
All subjects fasted overnight for at least 10 hours prior to dosing. For Treatment F, subjects received a standard high-fat breakfast 30 minutes before dosing. Dosing occurred 30 minutes (±5 minutes) after serving the meal.
Treatments D and E were administered in the morning following an overnight fast of at least 10 hours. Subjects who received Treatments D and E (fasted) continued to fast for at least 4 hours after dosing. For Treatment F, subjects received a standard high fat (approximately 50% of the total caloric content of the meal), high calorie (approximately 800 to 1000 calories) breakfast 30 minutes before dosing. The meal derived approximately 150, 250, and 500 to 600 calories from protein, carbohydrates, and fat, respectively. Subjects consumed the entire meal within 30 minutes of serving. Dosing occurred 30 minutes (±5 minutes) after serving the meal.
Actual sampling times were used in the calculation of PK parameters.
AUCt: AUC from time zero to the last quantifiable concentration.
AUC∞: AUC from time zero extrapolated to infinity.
Cmax: Maximum observed plasma concentration.
CL/F: Apparent total plasma clearance when dosed orally.
Vz/F: Apparent total volume of distribution when dosed orally.
t1/2: Terminal phase elimination half-life.
Geometric least squares (LS) means, ratio (fed/fasted) and 90% confidence intervals (CIs) of the ratio of geometric LS means were from an analysis of variance (ANOVA) model with treatment, period, and sequence as fixed effects, and subject nested within sequence as a random effect on the natural log-transformed pharmacokinetics.
The median, median difference (fed-fasted), and 90% confidence interval of the median difference were from the Hodges-Lehmann estimate.

[2] = Phase 1 study: safety and tolerability in healthy subjects; assay type: in vivo, human
Source text: Safety will be monitored throughout the study. Safety evaluations will include adverse event (AE) reporting, PEs, vital signs, 12-lead ECGs, clinical laboratory safety tests (including liver function tests (LFTs), total cholesterol, triglycerides, high-density lipoprotein (HDL), and low-density lipoprotein (LDL)) in addition to standard clinical chemistry, hematology, and urinalysis tests), review of concomitant medications/procedures, evaluation of wound healing, and pregnancy tests for female subjects.
All AEs will be monitored and recorded throughout the study from the time the informed consent form (ICF) is signed until study completion, and when made known to the Investigator within 28 days after the last dose of Compound 1 (and those serious adverse events (SAEs) made known to the Investigator at any time thereafter that are suspected of being related to IP). All concomitant medications and procedures will be reviewed and recorded from the time the subject signs the ICF until study completion. A follow-up visit (Part 1) or a follow-up phone call (Part 2) will be scheduled for all subjects. If a subject is discontinued from the study for any reason, an ET visit will be performed.
Part 1: To evaluate the safety of single and multiple oral doses of Compound 1; and Part 2: To evaluate the safety and tolerability of the formulated Compound 1 tablets when administered with food.

[3] = Earlier human experience with Compound 1 (doses up to 480 mg QD×14 days); assay type: in vivo; conditions: healthy subjects
[4] = Solubility in water and SGF (24 hours, ambient temperature, HPLC/UV); assay type: physicochemical; conditions: for solubility at 24 h: ambient temperature
Experimental: Solubility in Water and SGF: A portion of the sample was weighed into a 2 mL clear HPLC vial. […] The sample was removed from the shaker and pH measurement was performed using a calibrated pH meter. Then a portion of the sample was filtered using […] Nylon-membraned centrifuge tube filter at 14000 RPM for 5 min. The filtrate was analyzed using HPLC/UV with appropriate dilution. The filtered solid residues were analyzed using XRPD.
For solubility in SGF, the samples were prepared and assayed in the same procedures as mentioned above.

[5] = Hygroscopicity by dynamic vapor sorption (DVS); assay type: physicochemical
Source text: DVS: A portion of the sample was loaded into a quartz sample holder and tested using DVS-Advantage system in two continuous adsorption/desorption cycles. The settings are described as follows:
Adsorption/desorption cycle 1: 50 to 95 to 0% RH;
Adsorption/desorption cycle 2: 0 to 95 to 0% RH;

[6] = Solid state physical stability under stress conditions (XRPD); assay type: physicochemical; conditions: XRPD vs initial material
Experimental: A portion of the sample was loaded to a 4 mL clear glass vial. Four samples were prepared for each salt. The vials (open) were stored under 4 different stress conditions, respectively.

[7] = 200 mg tablet vs 2×100 mg capsules, single oral dose, fasted
[8] = Comparison E/D: 200 mg tablet fasted vs 2×100 mg AIC fasted
[9] = Comparison F/E: 200 mg tablet fed vs fasted
[10] = single oral dose of 200 mg tablet
[11] = measured after 24 hours shaking

C[C@@H]1CC[C@@H](Nc2nc(NC(C)(C)C)ncc2C(N)=O)C[C@H]1O [Compound 1, 2-(tert-butylamino)-4-((1R,3R,4R)-3-hydroxy-4-methylcyclohexylamino)-pyrimidine-5-carboxamide]
AUCt and AUC∞ of tablet compared to the capsules [1, 7]: equivalent | Cmax of tablet lower relative to the capsule formulation [1, 7]: ~17% | AUCt, Ratio (%) of Geometric Means [1, 8]: 92.6% | AUC∞, Ratio (%) of Geometric Means [1, 8]: 92.9% | Cmax, Ratio (%) of Geometric Means [1, 8]: 82.9% | AUCt, Ratio (%) of Geometric Means [1, 9]: 100.6% | AUC∞, Ratio (%) of Geometric Means [1, 9]: 100.8% | Cmax, Ratio (%) of Geometric Means [1, 9]: 106.4% | AUCτ (time 0 to the last quantifiable concentration) ([1]; Treatment F: 1×200 mg formulated tablet, single oral dose, fed (high-fat breakfast), geometric mean (geometric CV%), N=12): 12000 (27.4) ng · h/mL | AUC(0-t) ([1]; 200 mg, Treatment D: 2×100 mg as AIC, single oral dose, fasted, healthy subjects, geometric mean (geometric CV%), N=12, read-out: AUCτ (time 0 to the last quantifiable concentration)): 12900 ng·h/mL | Tmax ([1]; oral, 200 mg, Comparison E/D: 200 mg tablet fasted vs 2×100 mg AIC fasted, read-out: tmax, Median Difference): 0.01 h | Tmax ([1]; oral, 200 mg, Comparison F/E: 200 mg tablet fed vs fasted, read-out: tmax, Median Difference): 0.87 h | Tmax ([1]; oral, postdose, for all doses (Part 1 and Part 2), read-out: median Tmax): 1.95 to 3 h | AUC(0-t) ([1]; po, 200 mg, Treatment D: 2×100 mg as AIC, single oral dose, fasted, N=12, read-out: AUCt, Geometric Mean (ANOVA LS mean)): 12900 ng·h/mL | AUC(0-inf) ([1]; po, 200 mg, Treatment D: 2×100 mg as AIC, single oral dose, fasted, N=12, read-out: AUC∞, Geometric Mean (ANOVA LS mean)): 13100 ng·h/mL | Cmax ([1]; po, 200 mg, Treatment D: 2×100 mg as AIC, single oral dose, fasted, N=12, read-out: Cmax, Geometric Mean (ANOVA LS mean)): 2080 ng/mL | Tmax ([1]; po, 200 mg, Treatment D: 2×100 mg as AIC, single oral dose, fasted, N=12, read-out: tmax, Median (Hodges-Lehmann estimate)): 2 h | AUC(0-inf) ([1]; po, 200 mg, Treatment D: 2×100 mg as AIC, single oral dose, fasted, geometric mean (geometric CV%), N=12, read-out: AUC∞): 13100 ng·h/mL | Cmax ([1]; po, 200 mg, Treatment D: 2×100 mg as AIC, single oral dose, fasted, geometric mean (geometric CV%), N=12, read-out: Cmax): 2080 ng/mL | Vd/F ([1]; po, 200 mg, Treatment D: 2×100 mg as AIC, single oral dose, fasted, geometric mean (geometric CV%), N=12): 447 L | half-life ([1]; po, 200 mg, Treatment D: 2×100 mg as AIC, single oral dose, fasted, geometric mean (geometric CV%), N=12, read-out: t1/2 (terminal elimination half-life) (converted)): 20.3 h | Tmax ([1]; po, 200 mg, Treatment D: 2×100 mg as AIC, single oral dose, fasted, median (minimum, maximum), N=12, read-out: Tmax): 2 h | AUC(0-t) ([1]; po, 200 mg, Treatment E: 1×200 mg formulated tablet, single oral dose, fasted, N=12, read-out: AUCt, Geometric Mean (ANOVA LS mean)): 11900 ng·h/mL | AUC(0-inf) ([1]; po, 200 mg, Treatment E: 1×200 mg formulated tablet, single oral dose, fasted, N=12, read-out: AUC∞, Geometric Mean (ANOVA LS mean)): 12200 ng·h/mL | Cmax ([1]; po, 200 mg, Treatment E: 1×200 mg formulated tablet, single oral dose, fasted, N=12, read-out: Cmax, Geometric Mean (ANOVA LS mean)): 1730 ng/mL | Tmax ([1]; po, 200 mg, Treatment E: 1×200 mg formulated tablet, single oral dose, fasted, N=12, read-out: tmax, Median (Hodges-Lehmann estimate)): 2 h | AUC(0-t) ([1]; po, 200 mg, Treatment E: 1×200 mg formulated tablet, single oral dose, fasted, geometric mean (geometric CV%), N=12, read-out: AUCτ (time 0 to the last quantifiable concentration)): 11900 ng·h/mL | AUC(0-inf) ([1]; po, 200 mg, Treatment E: 1×200 mg formulated tablet, single oral dose, fasted, geometric mean (geometric CV%), N=12, read-out: AUC∞): 12200 ng·h/mL | Cmax ([1]; po, 200 mg, Treatment E: 1×200 mg formulated tablet, single oral dose, fasted, geometric mean (geometric CV%), N=12, read-out: Cmax): 1730 ng/mL | Vd/F ([1]; po, 200 mg, Treatment E: 1×200 mg formulated tablet, single oral dose, fasted, geometric mean (geometric CV%), N=12): 477 L | half-life ([1]; po, 200 mg, Treatment E: 1×200 mg formulated tablet, single oral dose, fasted, geometric mean (geometric CV%), N=12, read-out: t1/2 (terminal elimination half-life) (converted)): 20.1 h | Tmax ([1]; po, 200 mg, Treatment E: 1×200 mg formulated tablet, single oral dose, fasted, median (minimum, maximum), N=12, read-out: Tmax): 2 h | AUC(0-t) ([1]; po, 200 mg, Treatment F: 1×200 mg formulated tablet, single oral dose, fed, N=12, read-out: AUCt, Geometric Mean (ANOVA LS mean)): 12000 ng·h/mL | AUC(0-inf) ([1]; po, 200 mg, Treatment F: 1×200 mg formulated tablet, single oral dose, fed, N=12, read-out: AUC∞, Geometric Mean (ANOVA LS mean)): 12300 ng·h/mL | Cmax ([1]; po, 200 mg, Treatment F: 1×200 mg formulated tablet, single oral dose, fed, N=12, read-out: Cmax, Geometric Mean (ANOVA LS mean)): 1840 ng/mL | Tmax ([1]; po, 200 mg, Treatment F: 1×200 mg formulated tablet, single oral dose, fed, N=12, read-out: tmax, Median (Hodges-Lehmann estimate)): 3 h | AUC(0-inf) ([1]; po, 200 mg, Treatment F: 1×200 mg formulated tablet, single oral dose, fed, geometric mean (geometric CV%), N=12, read-out: AUC∞): 12300 ng·h/mL | Cmax ([1]; po, 200 mg, Treatment F: 1×200 mg formulated tablet, single oral dose, fed, geometric mean (geometric CV%), N=12, read-out: Cmax): 1840 ng/mL | Vd/F ([1]; po, 200 mg, Treatment F: 1×200 mg formulated tablet, single oral dose, fed, geometric mean (geometric CV%), N=12): 510 L | half-life ([1]; po, 200 mg, Treatment F: 1×200 mg formulated tablet, single oral dose, fed, geometric mean (geometric CV%), N=12, read-out: t1/2 (terminal elimination half-life) (converted)): 21.7 h | Tmax ([1]; po, 200 mg, Treatment F: 1×200 mg formulated tablet, single oral dose, fed, median (minimum, maximum), N=12, read-out: Tmax): 3 h | half-life ([1]; po, 200 mg, following a single oral dose of 200 mg, read-out: terminal elimination t1/2 (converted)): ~20 h | correlation of plasma concentrations with whole blood concentration ([1]; single 200 mg dose, Treatment D (FIG. 106)): highly correlated | effect of food on the PK of the tablet formulation ([1]; single oral 200 mg tablet, healthy subjects): no effect | AUCt and AUC∞ under fed compared to fasted conditions [1, 10]: equivalent | Cmax higher in the fed state compared to the fasted state [1, 10]: ~6% | subjects reporting TEAEs ([2]; 11 of 28 subjects, 17 TEAEs, Parts 1 and 2 overall): 39.3% | clinical laboratory evaluations, vital sign measurements, ECGs ([2]; Parts 1 and 2): No clinically significant changes or findings | subjects with an SAE or severe TEAE ([2]; Parts 1 and 2 overall, 28 subjects): No subjects | safety and tolerability ([2]; multiple doses 60, 160 and 400 mg AIC QD for 6 days): safe and well tolerated | diarrhea suspected of being related to Compound 1 ([2]; of 28 subjects): 2 subjects | nausea suspected of being related to Compound 1 ([2]; of 28 subjects): 4 subjects | safety and tolerability ([2]; single doses of 200 mg as formulated tablets (fed and fasted) and AIC (fasted)): safe and well tolerated | tolerability [3]: well tolerated | pH of the solubility sample in SGF [4, 11]: (pH 2.20) | pH of the solubility sample in water [4, 11]: (pH 8.96) | solubility at 24 h ([4]; pH 2.2, thermodynamic from solid, simulated gastric fluid without pepsin, read-out: Solubility in SGF (equiv. to free base)): 7170 µg/mL | solubility at 24 h ([4]; pH 8.96, thermodynamic from solid, water, read-out: Solubility in water (equiv. to free base)): 18 µg/mL | Hygroscopicity (80% RH, 25° C., cycle 1 sorption) ([5]; DVS water uptake, L-tartrate: hydrate, difference between 20% RH and 80% RH): 0.17% | hygroscopicity (sorption/desorption, in words) ([5]; DVS, 25° C.): not hygroscopic | Physical stability (open vial, 2 weeks) ([6]; 80° C./75% RH, listed as Compound 1 (free base)): physically stable | Physical stability (open vial, 2 weeks) ([6]; 80° C./75% RH, listed as Free base): no change | Physical stability (open vial, 2 weeks) ([6]; 80° C., listed as Compound 1 (free base)): physically stable | Physical stability (open vial, 2 weeks) ([6]; 80° C., listed as Free base): no change
